According to patent US20250099475A1, “METHODS OF TREATING HYPERTENSION BY PERIODIC SUPPRESSION OF ALDOSTERONE SYNTHASE” (Mineralys Therapeutics, Inc., priority 2022, published 2025):

Legend:
hypertensive subjects = assay: Example 4 dose-ranging study: automated office blood pressure (AOBP); type: in vivo, human; settings: for Change in AOBP BPdias, Mean (sem) / Change in AOBP BPsys, Mean (sem): Week 8, Full Analysis Set
Protocol: A randomized, double-blinded, placebo-controlled, dose-ranging, multicenter study was conducted to evaluate the effect of orally administered Compound A HBr on blood pressure for the treatment of hypertension in male and female subjects ≥18 years of age.
The study consists of two parts. For enrollment into Part 1 of the study, a subject's value of plasma renin activity (PRA) must be ≤1 ng/mL/h based on morning measurement. If the value of PRA >1 ng/mL/h based on morning measurement, then subjects may be eligible to enter Part 2 of the study.
For Part 1, 163 enrolled subjects ≥18 years of age were randomized into 6 equal treatment groups (1:1:1:1:1:1) to 12.5 mg BID, 25 mg BID, 12.5 mg QD, 50 mg QD, 100 mg QD, or placebo. After a review of interim clinical data, the 2 lowest dose levels (12.5 mg QD and 12.5 mg BID) were stopped for future randomization due to a lack of consistent meaningful reduction of blood pressure, but the patients randomized to that point remained in the study through completion. Thus, after the review of interim clinical data, subjects were randomized into 4 equal treatment groups (1:1:1:1) to 25 mg BID, 50 mg QD, 100 mg QD, or placebo.
For Part 2, 36 enrolled subjects ≥18 years of age were randomized (5:1) to either 100 mg QD Compound A HBr or placebo such that the Compound A HBr treatment group consisted of approximately 30 subjects and the placebo treatment group will consist of approximately 6 subjects.
Subjects orally administered the assigned study drug (Compound A HBr or placebo) according to the assigned dosing regimen for 8 weeks beginning on Study Day 1. All subjects in Part 1 (regardless of dosing group) received BID dosing to preserve the integrity of the blind; active drug is administered as the morning dose for all QD dose groups. Subjects returned to the research facility or were seen by the clinical investigator or approved home health care professional at the end of Study Weeks 1, 2, 3, 4, 5, 6, 7, and 8 (±2 days) for protocol-defined efficacy and safety assessments and procedures, assessment of adverse events (AEs), and confirmation of compliance with study drug usage. Subjects also completed a telephone visit and blood pressure (BP) check at home approximately 3 days post last dose of study drug. Subjects attended up to 14 full clinic visits, including a pre-Screening visit, a Screening/start of Placebo Run-in visit, a second visit during Placebo Run-in, a clinic visit to initiate the ABPM procedure, a Randomization visit, 8 weekly visits during double-blind treatment, and an end-of-study visit scheduled 4 weeks after the last study treatment for final efficacy and safety assessments.
An automated oscillometric sphygmomanometer device was used to measure the subjects' systolic and diastolic blood pressure in office after approximately 5 minutes of rest in the seated position.
The primary endpoint is the change in office-measured (mean of last 2 of 5 unattended measurements using an automated oscillometric sphygmomanometer device after approximately 5 minutes of rest in the seated position) systolic blood pressure (SBP) from baseline to the end of Study Week 8.

hERG channel = target: T1, hERG channel (Homo sapiens, UniProt Q12809); assay: Effects on hERG current, whole-cell patch-clamp in HEK293 cells; type: cell-based
T1 construct: expressed in transfected cells; host or cells: HEK293 cells stably expressing hERG
T1 sequence (Q12809 whole entry): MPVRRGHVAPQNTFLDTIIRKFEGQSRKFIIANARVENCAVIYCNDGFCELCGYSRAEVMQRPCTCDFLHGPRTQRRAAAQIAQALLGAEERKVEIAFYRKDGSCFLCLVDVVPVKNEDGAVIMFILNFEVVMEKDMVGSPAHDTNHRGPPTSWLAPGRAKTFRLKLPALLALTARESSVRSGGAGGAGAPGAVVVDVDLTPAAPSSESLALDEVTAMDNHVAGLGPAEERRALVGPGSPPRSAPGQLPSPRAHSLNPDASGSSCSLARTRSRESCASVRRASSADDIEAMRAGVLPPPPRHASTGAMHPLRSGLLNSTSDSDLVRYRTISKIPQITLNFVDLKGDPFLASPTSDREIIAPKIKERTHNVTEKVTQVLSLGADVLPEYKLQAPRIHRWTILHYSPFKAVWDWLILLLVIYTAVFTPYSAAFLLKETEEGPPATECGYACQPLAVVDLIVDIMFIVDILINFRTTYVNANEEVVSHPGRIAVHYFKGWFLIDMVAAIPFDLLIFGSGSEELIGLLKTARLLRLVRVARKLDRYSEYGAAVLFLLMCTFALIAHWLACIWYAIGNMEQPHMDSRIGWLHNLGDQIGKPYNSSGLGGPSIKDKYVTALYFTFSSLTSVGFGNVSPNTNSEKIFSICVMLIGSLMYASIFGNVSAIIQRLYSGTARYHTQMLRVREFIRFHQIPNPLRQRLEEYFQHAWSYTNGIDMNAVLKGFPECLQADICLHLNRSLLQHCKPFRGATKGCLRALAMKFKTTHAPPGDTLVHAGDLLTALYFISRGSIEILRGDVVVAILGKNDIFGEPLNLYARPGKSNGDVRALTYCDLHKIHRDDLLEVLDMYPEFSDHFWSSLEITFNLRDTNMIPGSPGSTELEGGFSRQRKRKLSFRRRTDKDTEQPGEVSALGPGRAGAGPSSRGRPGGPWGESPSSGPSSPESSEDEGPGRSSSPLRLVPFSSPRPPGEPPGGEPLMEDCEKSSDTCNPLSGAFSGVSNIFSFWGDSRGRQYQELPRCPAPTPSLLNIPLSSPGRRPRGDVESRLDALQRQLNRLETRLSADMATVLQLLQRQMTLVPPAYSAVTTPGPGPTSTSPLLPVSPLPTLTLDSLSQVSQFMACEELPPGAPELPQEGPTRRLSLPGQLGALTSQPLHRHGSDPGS
Protocol: The effects of Compound A on the human ether-à-go-go-related gene (hERG) current were evaluated using the whole-cell patch-clamp method in human embryonic kidney (HEK293) cells stably expressing the hERG channel. Cells were treated with Compound A at concentrations of 1, 3, 10, and 30 μmol/L, positive control (E-4031) at 0.1 μmol/L, or vehicle (0.3 v/v % dimethyl sulfoxide) for 10 minutes.

[1] = pooled 50 mg QD, 100 mg QD, 12.5 mg BID and 25 mg BID cohorts (N=103)

## CC(=O)N[C@H]1CC[C@H](NC(=O)CN2CCN(c3nncc(-c4ccc(C)cc4)n3)CC2)CC1 [Compound A HBr]
Hypertensive subjects; 100 mg, Part-1 and Part-2 (interim) combined, N=58 active
  reduction in AOBP systolic BP, placebo-corrected, Full-analysis set: −9.9 mmHg
Hypertensive subjects; Age 65-79, 12.5 mg BID
  Difference from placebo in blood pressure change (LS modeled mean): −1.5 (13)
Hypertensive subjects; Age 65-79, 12.5 mg QD
  Difference from placebo in blood pressure change (LS modeled mean): 1.1 (10)
Hypertensive subjects; Age 65-79, 25 mg BID
  Difference from placebo in blood pressure change (LS modeled mean): −2.4 (15)
Hypertensive subjects; Age 65-79, 50 mg QD
  Difference from placebo in blood pressure change (LS modeled mean): −8.8 (13)
Hypertensive subjects; Age 65-79, 100 mg QD
  Difference from placebo in blood pressure change (LS modeled mean): −1.6 (18)
Hypertensive subjects; Age <65, 12.5 mg BID
  Difference from placebo in blood pressure change (LS modeled mean): −5.4 (6)
Hypertensive subjects; Age <65, 12.5 mg QD
  Difference from placebo in blood pressure change (LS modeled mean): −0.3 (10)
Hypertensive subjects; Age <65, 25 mg BID
  Difference from placebo in blood pressure change (LS modeled mean): −8.5 (13)
Hypertensive subjects; Age <65, 50 mg QD
  Difference from placebo in blood pressure change (LS modeled mean): −10.2 (13)
Hypertensive subjects; Age <65, 100 mg QD
  Difference from placebo in blood pressure change (LS modeled mean): −15.7 (8)
Hypertensive subjects; Background hypertension therapy 2 medications, 12.5 mg BID
  Difference from placebo in blood pressure change (LS modeled mean): −1.2 (7)
Hypertensive subjects; Background hypertension therapy 2 medications, 12.5 mg QD
  Difference from placebo in blood pressure change (LS modeled mean): 1.8 (14)
Hypertensive subjects; Background hypertension therapy 2 medications, 25 mg BID
  Difference from placebo in blood pressure change (LS modeled mean): 1.4 (14)
Hypertensive subjects; Background hypertension therapy 2 medications, 50 mg QD
  Difference from placebo in blood pressure change (LS modeled mean): −3.7 (20)
Hypertensive subjects; Background hypertension therapy 2 medications, 100 mg QD
  Difference from placebo in blood pressure change (LS modeled mean): −7.5 (14)
Hypertensive subjects; Background hypertension therapy 3+ medications, 12.5 mg BID, * p < 0.05
  Difference from placebo in blood pressure change (LS modeled mean): −12.2* (15)
Hypertensive subjects; Background hypertension therapy 3+ medications, 12.5 mg QD
  Difference from placebo in blood pressure change (LS modeled mean): −6.0 (9)
Hypertensive subjects; Background hypertension therapy 3+ medications, 25 mg BID, * p < 0.05
  Difference from placebo in blood pressure change (LS modeled mean): −15.8* (16)
Hypertensive subjects; Background hypertension therapy 3+ medications, 50 mg QD, * p < 0.05
  Difference from placebo in blood pressure change (LS modeled mean): −19.1* (8)
Hypertensive subjects; Background hypertension therapy 3+ medications, 100 mg QD
  Difference from placebo in blood pressure change (LS modeled mean): −9.6 (16)
Hypertensive subjects; Baseline BPsys High tertile, 12.5 mg BID
  Difference from placebo in blood pressure change (LS modeled mean): −9.7
Hypertensive subjects; Baseline BPsys High tertile, 12.5 mg QD
  Difference from placebo in blood pressure change (LS modeled mean): −3.6
Hypertensive subjects; Baseline BPsys High tertile, 25 mg BID
  Difference from placebo in blood pressure change (LS modeled mean): −5.6
Hypertensive subjects; Baseline BPsys High tertile, 50 mg QD, * p < 0.05
  Difference from placebo in blood pressure change (LS modeled mean): −20.6*
Hypertensive subjects; Baseline BPsys High tertile, 100 mg QD
  Difference from placebo in blood pressure change (LS modeled mean): −9.7
Hypertensive subjects; Baseline BPsys Low tertile, 12.5 mg BID
  Difference from placebo in blood pressure change (LS modeled mean): 3.8
Hypertensive subjects; Baseline BPsys Low tertile, 12.5 mg QD
  Difference from placebo in blood pressure change (LS modeled mean): −10.7
Hypertensive subjects; Baseline BPsys Low tertile, 25 mg BID
  Difference from placebo in blood pressure change (LS modeled mean): −8.8
Hypertensive subjects; Baseline BPsys Low tertile, 50 mg QD
  Difference from placebo in blood pressure change (LS modeled mean): −8.3
Hypertensive subjects; Baseline BPsys Low tertile, 100 mg QD
  Difference from placebo in blood pressure change (LS modeled mean): −11.8
Hypertensive subjects; Baseline BPsys Middle tertile, 12.5 mg BID
  Difference from placebo in blood pressure change (LS modeled mean): −9.7
Hypertensive subjects; Baseline BPsys Middle tertile, 12.5 mg QD
  Difference from placebo in blood pressure change (LS modeled mean): 9.3
Hypertensive subjects; Baseline BPsys Middle tertile, 25 mg BID
  Difference from placebo in blood pressure change (LS modeled mean): −4.0
Hypertensive subjects; Baseline BPsys Middle tertile, 50 mg QD
  Difference from placebo in blood pressure change (LS modeled mean): −11.9
Hypertensive subjects; Baseline BPsys Middle tertile, 100 mg QD
  Difference from placebo in blood pressure change (LS modeled mean): −11.8
Hypertensive subjects; Gender Female, 12.5 mg BID
  Difference from placebo in blood pressure change (LS modeled mean): −3.79 (14)
Hypertensive subjects; Gender Female, 12.5 mg QD
  Difference from placebo in blood pressure change (LS modeled mean): −0.2 (12)
Hypertensive subjects; Gender Female, 25 mg BID
  Difference from placebo in blood pressure change (LS modeled mean): −5.18 (19)
Hypertensive subjects; Gender Female, 50 mg QD
  Difference from placebo in blood pressure change (LS modeled mean): −11.3 (15)
Hypertensive subjects; Gender Female, 100 mg QD
  Difference from placebo in blood pressure change (LS modeled mean): −5.1 (18)
Hypertensive subjects; Gender Male, 12.5 mg BID
  Difference from placebo in blood pressure change (LS modeled mean): −13.8 (8)
Hypertensive subjects; Gender Male, 12.5 mg QD
  Difference from placebo in blood pressure change (LS modeled mean): −2.3 (11)
Hypertensive subjects; Gender Male, 25 mg BID
  Difference from placebo in blood pressure change (LS modeled mean): −9.5 (11)
Hypertensive subjects; Gender Male, 50 mg QD
  Difference from placebo in blood pressure change (LS modeled mean): −8.3 (13)
Hypertensive subjects; Gender Male, 100 mg QD
  Difference from placebo in blood pressure change (LS modeled mean): −12.4 (12)
Hypertensive subjects; Part-1 100 mg cohort
  reduction in AOBP systolic BP, per-protocol, placebo-corrected: −10.3 mmHg
Hypertensive subjects; Race Black, 12.5 mg BID
  Difference from placebo in blood pressure change (LS modeled mean): 5.57 (7)
Hypertensive subjects; Race Black, 12.5 mg QD
  Difference from placebo in blood pressure change (LS modeled mean): 6.75 (11)
Hypertensive subjects; Race Black, 25 mg BID
  Difference from placebo in blood pressure change (LS modeled mean): −10.1 (7)
Hypertensive subjects; Race Black, 50 mg QD
  Difference from placebo in blood pressure change (LS modeled mean): −6.9 (8)
Hypertensive subjects; Race Black, 100 mg QD
  Difference from placebo in blood pressure change (LS modeled mean): −7.0 (15)
Hypertensive subjects; Race Other, 12.5 mg BID
  Difference from placebo in blood pressure change (LS modeled mean): −14.7 (15)
Hypertensive subjects; Race Other, 12.5 mg QD
  Difference from placebo in blood pressure change (LS modeled mean): −7.5 (12)
Hypertensive subjects; Race Other, 25 mg BID
  Difference from placebo in blood pressure change (LS modeled mean): −7.2 (23)
Hypertensive subjects; Race Other, 50 mg QD
  Difference from placebo in blood pressure change (LS modeled mean): −12.1 (20)
Hypertensive subjects; Race Other, 100 mg QD
  Difference from placebo in blood pressure change (LS modeled mean): −9.2 (15)
Hypertensive subjects; 12.5 mg BID
  Change in AOBP BPdias, Mean (sem): −6.1 (1.8) mmHg
  Change in AOBP BPsys, Mean (sem): −11.3 (3.1) mmHg
Hypertensive subjects; 12.5 mg QD
  Change in AOBP BPdias, Mean (sem): −6.1 (1.8) mmHg
  Change in AOBP BPsys, Mean (sem): −5.7 (3.1) mmHg
Hypertensive subjects; 25 mg BID
  Change in AOBP BPdias, Mean (sem): −3.83 (2.1) mmHg
  Change in AOBP BPsys, Mean (sem): −11.0 (2.6) mmHg
Hypertensive subjects; 50 mg QD
  Change in AOBP BPdias, Mean (sem): −8.1 (1.7) mmHg
  Change in AOBP BPsys, Mean (sem): −13.9 (2.6) mmHg
Hypertensive subjects; 100 mg QD
  Change in AOBP BPdias, Mean (sem): −4.76 (1.5) mmHg
  Change in AOBP BPsys, Mean (sem): −12.2 (2.7) mmHg
Hypertensive subjects; doses of 50 mg and 100 mg QD
  mean reduction in AOBP measured systolic BP: −11 to −13 mmHg
Hypertensive subjects; [1]
  subjects with a change in BPsys >−15 mmHg: 41%
  subjects with a change in BPsys >−25 mmHg: 25%
Hypertensive subjects; week 8, pooled 50 mg QD, 100 mg QD, 12.5 mg BID, 25 mg BID cohorts
  subjects who achieved >−23 mmHg fall in systolic blood pressure: 25%
Hypertensive subjects; week 8, pooled cohorts
  mean reduction in systolic blood pressure in the highest response quartile: −33.4+1.5 mmgHg
  subjects who achieved a ≥15 mmHg fall in systolic blood pressure: 41%

## CC(=O)N[C@H]1CC[C@H](NC(=O)CN2CCN(c3nncc(-c4ccc(C)cc4)n3)CC2)CC1 [Compound A]
hERG channel
  IC50: > 30 µM
hERG channel; human, HEK293 cells stably expressing the hERG channel, 30 μmol/L
  inhibition at 10 min, 30 μmol/L: 27%
